Our source for the Stability and Solubility values is patent US20140051877A1, “EICOSAPENTAENOIC ACID (EPA) AS POLYUNSATURATED FREE FATTY ACID IN ITS DIRECTLY COMPRESSIBLE POWDER FORM AND PROCESS OF ISOLATION THEREOF” (priority 2011, published 2014).

Data set [1] can be described thus: Stability of EPA powder at room temperature. Format: physicochemical. To be noted: powder form, no antioxidants added.
The nature of data set [2]: Physical characterisation of isolated EPA: solubility. Type of data set: physicochemical. Conditions: solvent chloroform; isolated EPA free fatty acid powder. The method, then:
Take 1 litre of fish oil. Maintain temperature to 40-45° C. To it add 1-2% methanolic or ethanolic or propanolic or butanolic sodium or potassium hydroxide 1 litre and stir for ½ an hour. keep aside, it separates into 2 layers, discard an upper layer which contains lower fatty acids. It further separates in to two layers, discard the upper layer. Then in lower layer add 750 ml of acetone or ethyl/ methyl ketone and stir for ½ an hour and keep aside for 20 mins. It precipitates and form two phase (solid and liquid) filter it and discard the solid layer. In the lower liquid layer, after ½ an hour, settle solid compound. On filtration, the solid compound separates. Wash the solid compound 2-3 times with 400 ml of acetone and Evaporate and recover the solvent with temperature not exceeding 40 degree C. This leads to drying of the precipitated EPA at room temperature to form the crystalline mass. The same is passed through the sieve to obtain a dry, directly compressible, free flowing powder of free fatty acid EPA thereof.
Cool fish oil to 12 degree C. to solidify all fatty acids in waxy form which separates from the fish oil. […] It is washed 2-3 times with equal quantity of acetone and Evaporate and recover the solvent with temperature not exceeding 40 degree C. […]

As for `CC/C=C\C/C=C\C/C=C\C/C=C\C/C=C\CCCC(=O)O` [EPA, Eicosapentaenoic acid], in data set [1], the Stability result was “stable at room temperature”. Further, in data set [2], the Solubility entry is listed as “freely soluble in chloroform”.
